Among the data in the supplement of paper PMC10307832 are relative viability values, retold here.

Holding throughout (assay): relative viability (nuclei count vs DMSO), 5 days (fraction); higher = more cells survive
Compound in assay [1]: CC(C)=CC[C@@H](O)C1=CC(=O)c2c(O)ccc(O)c2C1=O [Shikonin] + CC(C)C[C@H](NC(=O)[C@H](Cc1ccccc1)NC(=O)c1cnccn1)B(O)O [Bortezomib] (partner 0.002 µM)
In a few lines:
(§1)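 Values are medians from duplicate plates. Each reflects relative viability, defined as the nuclei count of treated wells over that of vehicle wells. Lung cancer cell lines in 1536-well plates were pin-tool dosed one day after seeding with one drug alone or with a fixed anchor-drug dose plus five library-drug doses (not always all listed) in √10 steps, then fixed, stained and imaged at 4× after 5 days.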

Compound in assay [2]: CC(C)=CC[C@@H](O)C1=CC(=O)c2c(O)ccc(O)c2C1=O [Shikonin] + CS(=O)(=O)N1CCN(Cc2cc3nc(-c4cccc5[nH]ncc45)nc(N4CCOCC4)c3s2)CC1 [Pictilisib] (partner 1 µM)
In a few lines: as §1

Compound in assay [3]: CC(C)=CC[C@@H](O)C1=CC(=O)c2c(O)ccc(O)c2C1=O [Shikonin] + O=C(c1cc(Cc2n[nH]c(=O)c3ccccc23)ccc1F)N1CCN(C(=O)C2CC2)CC1 [Olaparib] (partner 8 µM)
In a few lines: as §1

Compound in assay [4]: CC(C)N(CCCNC(=O)Nc1ccc(C(C)(C)C)cc1)C[C@H]1O[C@@H](n2ccc3c(N)ncnc32)[C@H](O)[C@@H]1O + Cc1nc(Nc2ncc(C(=O)Nc3c(C)cccc3Cl)s2)cc(N2CCN(CCO)CC2)n1 [Dasatinib] (partner 0.075 µM)
The procedure, abridged:
as §1

As for PC-14, the relative viability came to 0.973 in assay [1] (first compound 0.01 µM); 0.953 in assay [1] (first compound 0.1 µM); 1.02 in assay [1] (first compound 0.3162 µM); 0.881 in assay [1] (first compound 1 µM); 0.817 in assay [2] (first compound 0.01 µM); 0.641 in assay [2] (first compound 0.3162 µM). Besides, the relative viability in assay [2] (first compound 1 µM) is 0.68; in assay [3] (first compound 0.01 µM) it was 0.282; in assay [3] (first compound 0.1 µM), 0.235; in assay [3] (first compound 0.3162 µM), 0.191; in assay [3] (first compound 1 µM) it was 0.121; in assay [4] (first compound 0.08 µM), 0.223. Also, the relative viability in assay [4] (first compound 0.253 µM) was 0.292; in assay [4] (first compound 0.8 µM), 0.233; in assay [4] (first compound 2.53 µM) it was 0.247; in assay [4] (first compound 8 µM), 0.275.
For the cell line RERF-LC-KJ, the relative viability was 1.08 in assay [1] (first compound 0.01 µM); 1.19 in assay [1] (first compound 0.1 µM); 1.28 in assay [1] (first compound 0.3162 µM); 0.986 in assay [1] (first compound 1 µM); 0.549 in assay [2] (first compound 0.01 µM); 0.512 in assay [2] (first compound 0.1 µM). The relative viability in assay [2] (first compound 0.3162 µM) turned out to be 0.557; in assay [2] (first compound 1 µM) it was 0.248; in assay [3] (first compound 0.01 µM), 1.05; in assay [3] (first compound 0.1 µM), 1.08; in assay [3] (first compound 0.3162 µM) it was 0.842; in assay [3] (first compound 1 µM), 0.62. Further, the relative viability in assay [4] (first compound 0.08 µM) came out at 0.837; in assay [4] (first compound 0.253 µM), 0.888; in assay [4] (first compound 0.8 µM) it was 0.79; in assay [4] (first compound 2.53 µM), 0.778; in assay [4] (first compound 8 µM) it was 0.799.
Turning to SK-LU-1, the relative viability in assay [1] (first compound 0.01 µM) is 1.14; in assay [1] (first compound 0.1 µM), 0.984; in assay [1] (first compound 0.3162 µM) it was 1.34; in assay [1] (first compound 1 µM), 1.58; in assay [2] (first compound 0.01 µM), 0.511; in assay [2] (first compound 0.1 µM), 0.541. Besides, the relative viability was 0.442 in assay [2] (first compound 0.3162 µM); 0.616 in assay [2] (first compound 1 µM); 0.45 in assay [3] (first compound 0.01 µM); 0.413 in assay [3] (first compound 0.1 µM); 0.441 in assay [3] (first compound 0.3162 µM); 0.468 in assay [3] (first compound 1 µM). Further, the relative viability was 0.18 in assay [4] (first compound 0.08 µM); 0.184 in assay [4] (first compound 0.253 µM); 0.19 in assay [4] (first compound 0.8 µM); 0.184 in assay [4] (first compound 2.53 µM); 0.207 in assay [4] (first compound 8 µM).
On to SW 1573, for which the relative viability in assay [1] (first compound 0.01 µM) was 1.12; in assay [1] (first compound 0.1 µM), 1.39; in assay [1] (first compound 0.3162 µM), 1.06; in assay [1] (first compound 1 µM) it was 0.955; in assay [2] (first compound 0.01 µM), 0.616; in assay [2] (first compound 0.1 µM), 0.604. Moreover, the relative viability in assay [2] (first compound 0.3162 µM) turned out to be 0.558; in assay [2] (first compound 1 µM), 0.532; in assay [3] (first compound 0.01 µM), 0.661; in assay [3] (first compound 0.1 µM) it was 0.557; in assay [3] (first compound 0.3162 µM), 0.321; in assay [3] (first compound 1 µM) it was 0.0736. Also, the relative viability in assay [4] (first compound 0.08 µM) is 0.475; in assay [4] (first compound 0.253 µM), 0.463; in assay [4] (first compound 0.8 µM) it was 0.579; in assay [4] (first compound 2.53 µM), 0.704; in assay [4] (first compound 8 µM), 0.474.
For the cell line UMC-11, the relative viability in assay [1] (first compound 0.01 µM) was found to be 0.773; in assay [1] (first compound 0.1 µM), 0.854; in assay [1] (first compound 0.3162 µM), 0.675; in assay [1] (first compound 1 µM) it was 0.812; in assay [2] (first compound 0.01 µM), 0.736; in assay [2] (first compound 0.1 µM) it was 0.999. Also, the relative viability in assay [2] (first compound 0.3162 µM) amounted to 0.76; in assay [2] (first compound 1 µM) it was 0.97; in assay [3] (first compound 0.01 µM), 0.332; in assay [3] (first compound 0.1 µM) it was 0.374; in assay [3] (first compound 0.3162 µM) it was 0.346; in assay [3] (first compound 1 µM), 0.374. The relative viability in assay [4] (first compound 0.08 µM) came out at 0.461; in assay [4] (first compound 0.253 µM), 0.422; in assay [4] (first compound 0.8 µM), 0.436; in assay [4] (first compound 2.53 µM), 0.486; in assay [4] (first compound 8 µM), 0.492.
